Experimental findings from patent US20080234262A1 (Wyeth, priority 2007, published 2008) are described below.

For one assay, the system named is breast line MDA468. The assay is described as follows: In vitro cell culture growth assay (MTS), MDA468. In kind it is cell-based, human. The note with it: Homo sapiens, 72 h, MDA468 cells, three days after drug treatment. The essentials:
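Cells were plated and, one day later, exposed to inhibitors for three days; viable cell density was then measured by metabolic conversion of MTS dye, read as absorbance at 490 nm. Growth is expressed as percent of vehicle-treated control cells on the same plate.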

A further assay addresses PI3K (Homo sapiens, UniProt P42336). Nature of the assay: Fluorescence polarization assay for PI3K.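 Further: PI3K kinase reaction on PIP2 with ATP, 30-60 min, product sensed by GST-GRP with red probe in fluorescence polarization (mP), controls without enzyme and at zero time.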 To be noted: PI3Kα; read-out: PI3Kα IC50. It counts as biochemical. In general terms: Fluorescence polarisation rises when a labelled molecule tumbles more slowly, as on binding a larger partner.
Another assay relates to prostate line LNCap. The assay is described as follows: In vitro cell culture growth assay (MTS), LNCap. In kind it is cell-based, human. To be noted: Homo sapiens, LNCaP, 72 h, LNCap cells, three days after drug treatment.

Chain of PI3K (P42336 whole entry): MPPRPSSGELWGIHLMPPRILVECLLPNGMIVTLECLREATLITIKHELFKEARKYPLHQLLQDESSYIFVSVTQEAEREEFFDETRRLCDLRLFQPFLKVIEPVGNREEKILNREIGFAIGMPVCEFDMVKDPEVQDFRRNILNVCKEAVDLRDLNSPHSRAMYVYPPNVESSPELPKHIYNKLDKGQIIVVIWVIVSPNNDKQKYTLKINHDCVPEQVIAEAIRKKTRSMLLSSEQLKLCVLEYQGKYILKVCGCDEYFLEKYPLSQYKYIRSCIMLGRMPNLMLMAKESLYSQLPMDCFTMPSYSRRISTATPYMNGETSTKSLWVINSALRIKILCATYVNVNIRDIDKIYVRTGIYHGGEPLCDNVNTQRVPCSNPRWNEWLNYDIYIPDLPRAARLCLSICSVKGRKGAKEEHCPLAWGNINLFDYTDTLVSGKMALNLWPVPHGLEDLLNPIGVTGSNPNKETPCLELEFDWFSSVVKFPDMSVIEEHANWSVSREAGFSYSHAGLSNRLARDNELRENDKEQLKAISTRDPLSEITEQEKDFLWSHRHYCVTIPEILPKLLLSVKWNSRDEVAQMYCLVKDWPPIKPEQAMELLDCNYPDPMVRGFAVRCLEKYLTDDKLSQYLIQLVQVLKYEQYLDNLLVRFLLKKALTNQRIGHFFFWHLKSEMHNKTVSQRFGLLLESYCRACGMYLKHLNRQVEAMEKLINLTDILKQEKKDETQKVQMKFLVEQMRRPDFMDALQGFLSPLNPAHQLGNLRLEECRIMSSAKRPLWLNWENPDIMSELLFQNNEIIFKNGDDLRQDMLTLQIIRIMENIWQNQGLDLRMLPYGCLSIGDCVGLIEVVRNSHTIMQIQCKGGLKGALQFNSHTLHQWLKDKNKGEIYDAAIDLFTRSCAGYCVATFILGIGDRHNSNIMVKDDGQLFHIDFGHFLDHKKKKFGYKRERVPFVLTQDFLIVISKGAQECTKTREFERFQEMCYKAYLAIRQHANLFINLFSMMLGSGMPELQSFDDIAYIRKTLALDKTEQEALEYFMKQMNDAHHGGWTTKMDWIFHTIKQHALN
Chain of PI3K (P27986 whole entry partner): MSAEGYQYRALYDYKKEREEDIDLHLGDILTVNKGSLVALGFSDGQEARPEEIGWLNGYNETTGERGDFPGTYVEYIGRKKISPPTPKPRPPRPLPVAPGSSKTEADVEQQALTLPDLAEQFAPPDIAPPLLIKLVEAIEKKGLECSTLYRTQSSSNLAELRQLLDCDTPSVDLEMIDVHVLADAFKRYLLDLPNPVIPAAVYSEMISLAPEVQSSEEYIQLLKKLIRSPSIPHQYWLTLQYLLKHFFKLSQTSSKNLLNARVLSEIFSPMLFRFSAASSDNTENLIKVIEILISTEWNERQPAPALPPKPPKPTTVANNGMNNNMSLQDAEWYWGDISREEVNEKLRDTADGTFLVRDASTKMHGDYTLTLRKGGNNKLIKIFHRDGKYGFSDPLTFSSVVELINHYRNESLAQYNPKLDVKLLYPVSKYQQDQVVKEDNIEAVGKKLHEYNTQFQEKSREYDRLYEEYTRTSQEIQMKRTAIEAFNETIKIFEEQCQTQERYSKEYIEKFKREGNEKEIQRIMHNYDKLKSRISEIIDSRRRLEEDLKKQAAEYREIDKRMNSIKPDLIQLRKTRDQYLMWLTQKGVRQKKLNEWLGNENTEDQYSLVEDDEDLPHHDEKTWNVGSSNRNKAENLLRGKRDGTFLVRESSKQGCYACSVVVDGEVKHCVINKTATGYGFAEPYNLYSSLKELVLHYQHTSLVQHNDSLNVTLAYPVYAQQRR

One may read the IC50 as the concentration at which inhibition is half-maximal. Turning to `O=C(NCCF)Nc1ccc(-c2nc(N3CCOCC3)c3cnn(CC(F)(F)F)c3n2)cc1` [Compound 790, 1-(2-fluoroethyl)-3-{4-[4-morpholin-4-yl-1-(2,2,2-trifluoroethyl)-1H-pyrazolo[3,4-d]pyrimidin-6-yl]phenyl}urea], the 50% inhibitory concentration (IC50) in the assay with breast line MDA468 is 150 nM; at PI3K it was 314 nM; with prostate line LNCap, 60 nM.

Turning to `O=C(Nc1ccc(-c2nc(N3CCOCC3)c3cnn(C4CCNCC4)c3n2)cc1)Nc1ccccn1` [Compound 778, 1-[4-(4-morpholin-4-yl-1-piperidin-4-yl-1H-pyrazolo[3,4-d]pyrimidin-6-yl)phenyl]-3-pyridin-2-ylurea], the half-maximal inhibitory concentration (IC50) was determined as 1600 nM in the assay on breast line MDA468, 154 nM on PI3K and 1300 nM with prostate line LNCap.

`CC(c1ccccc1)N1CCC(n2ncc3c(N4CCOCC4)nc(-c4ccc5[nH]ccc5c4)nc32)CC1` (stereo not drawn) [Compound 490, 6-(1H-indol-5-yl)-4-morpholin-4-yl-1-[1-(1-phenylethyl)piperidin-4-yl]-1H-pyrazolo[3,4-d]pyrimidine]: the half-inhibitory concentration (IC50) was 3500 nM in the assay on breast line MDA468, 2670 nM on PI3K and 3800 nM in the assay with prostate line LNCap.

Turning to `c1cc2cc(-c3nc(N4CCOCC4)c4cn[nH]c4n3)ccc2[nH]1` [Compound 248, 6-(1H-indol-5-yl)-4-morpholin-4-yl-1H-pyrazolo[3,4-d]pyrimidine], the half-inhibitory concentration (IC50) in the assay with breast line MDA468 was 9000 nM; on PI3K it was 939 nM; in the assay with prostate line LNCap, 3500 nM.

Take `O=C(NO)Nc1ccc(-c2nc(N3CCOCC3)c3cnn(C4CCN(Cc5cccnc5)CC4)c3n2)cc1` [Compound 317, 1-hydroxy-3-(4-{4-morpholin-4-yl-1-[1-(pyridin-3-ylmethyl)piperidin-4-yl]-1H-pyrazolo[3,4-d]pyrimidin-6-yl}phenyl)urea]: the values for the half-maximal inhibitory concentration (IC50) in the assay on breast line MDA468, on PI3K and in the assay with prostate line LNCap were 1500 nM, 259 nM and 1100 nM, respectively.

Consider `COC(=O)N1CCC(n2ncc3c(N4CCOCC4)nc(-c4ccc(NC(=O)Nc5ccccc5F)cc4)nc32)CC1` [Compound 860, methyl 4-[6-(4-{[(2-fluorophenyl)carbamoyl]amino}phenyl)-4-morpholin-4-yl-1H-pyrazolo[3,4-d]pyrimidin-1-yl]piperidine-1-carboxylate], for which the figures for the concentration for half-maximal inhibition (IC50) with breast line MDA468, at PI3K and with prostate line LNCap were 390 nM, 38 nM and 120 nM, respectively.

As to `c1ccc(-n2ncc3c(N4CCOCC4)nc(-c4cc5ccccc5[nH]4)nc32)cc1` [Compound 111, 6-(1H-indol-2-yl)-4-morpholin-4-yl-1-phenyl-1H-pyrazolo[3,4-d]pyrimidine], the IC50 with breast line MDA468 worked out at 23000 nM; on PI3K, 1010 nM; in the assay on prostate line LNCap, 12000 nM.

With `O=C(C1CCCCC1)N1CCC(n2ncc3c(N4CCOCC4)nc(-c4cccc(O)c4)nc32)CC1` [Example 26], the figures for the IC50 in the assay with breast line MDA468, at PI3K and in the assay with prostate line LNCap were 4000 nM, 68 nM and 1300 nM, respectively.

Take `CNC(=O)Nc1ccc(-c2nc(N3CCOCC3)c3cnn(C4CCN(C(=O)c5cccc(F)c5)CC4)c3n2)cc1` [Compound 603, 1-(4-{1-[1-(3-fluorobenzoyl)piperidin-4-yl]-4-morpholin-4-yl-1H-pyrazolo[3,4-d]pyrimidin-6-yl}phenyl)-3-methylurea]: the IC50 in the assay with breast line MDA468 was 80 nM; at PI3K it was 88 nM; in the assay on prostate line LNCap it was less than 27 nM.

Take `CNC(=O)Nc1ccc(-c2nc(N3CCOCC3)c3cnn(C4CCN(C(=S)NC)CC4)c3n2)cc1` [Compound 760, N-methyl-4-(6-{4-[(methylcarbamoyl)amino]phenyl}-4-morpholin-4-yl-1H-pyrazolo[3,4-d]pyrimidin-1-yl)piperidine-1-carbothioamide]: the IC50 with breast line MDA468 came out at 50 nM; on PI3K, 42 nM; in the assay with prostate line LNCap, 170 nM.

Take `CNC(=O)Nc1ccc(-c2nc(N3CCOCC3)c3cnn(C4CCN(Cc5ccc(F)cc5)CC4)c3n2)cc1` [Compound 427, 1-(4-{1-[1-(4-fluorobenzyl)piperidin-4-yl]-4-morpholin-4-yl-1H-pyrazolo[3,4-d]pyrimidin-6-yl}phenyl)-3-methylurea]: the half-inhibitory concentration (IC50) with breast line MDA468 turned out to be 200 nM; on PI3K, 34 nM; in the assay on prostate line LNCap, 27 nM.
